Calls of active or inactive are those of the source. No cut-off for these calls is given here.
Legend:
Rattus norvegicus [1] = test: Antiarrhythmic activity against adrenaline-induced arrhythmia in iv dosed anaesthetized Wistar rat assessed as inhibition of premature ventricular beats pretreated 60 mins prior to adrenaline challenge; type: functional; settings: Heart
Rattus norvegicus [2] = test: Effect on electrocardiogram in anaesthetized Wistar rat assessed as change in P-Q interval at 1 mg/kg, iv after 1 min by electrocardiography; type: functional
Rattus norvegicus [3] = test: Effect on electrocardiogram in anaesthetized Wistar rat assessed as change in P-Q-interval at 1 mg/kg, iv after 5 mins by electrocardiography; type: functional
Rattus norvegicus [4] = test: Effect on electrocardiogram in anaesthetized Wistar rat assessed as change in Q-T interval at 1 mg/kg, iv after 1 min by electrocardiography; type: functional
[5] = biological target: T1, Adrenergic receptor alpha-1 (Rattus norvegicus, UniProt P15823+P23944+P43140); test: Displacement of [3H]prazosin from alpha1 adrenergic receptor in rat cerebral cortex by liquid scintillation method; type: tissue-based
T1 sequence (P15823 whole entry): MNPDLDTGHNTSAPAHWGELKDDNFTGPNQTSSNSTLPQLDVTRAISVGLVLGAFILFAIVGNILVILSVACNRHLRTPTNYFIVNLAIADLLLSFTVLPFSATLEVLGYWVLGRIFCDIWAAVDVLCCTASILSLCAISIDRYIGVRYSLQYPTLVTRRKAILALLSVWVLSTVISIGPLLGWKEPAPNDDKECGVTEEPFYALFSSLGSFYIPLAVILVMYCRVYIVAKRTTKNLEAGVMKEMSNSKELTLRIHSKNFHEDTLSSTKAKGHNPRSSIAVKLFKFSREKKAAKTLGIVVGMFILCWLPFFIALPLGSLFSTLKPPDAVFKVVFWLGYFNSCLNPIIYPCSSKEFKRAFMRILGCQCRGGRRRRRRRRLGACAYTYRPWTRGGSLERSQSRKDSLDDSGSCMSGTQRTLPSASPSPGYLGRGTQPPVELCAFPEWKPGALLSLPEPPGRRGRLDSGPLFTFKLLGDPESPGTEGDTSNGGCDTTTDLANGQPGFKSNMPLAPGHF
T1 sequence (P23944 whole entry): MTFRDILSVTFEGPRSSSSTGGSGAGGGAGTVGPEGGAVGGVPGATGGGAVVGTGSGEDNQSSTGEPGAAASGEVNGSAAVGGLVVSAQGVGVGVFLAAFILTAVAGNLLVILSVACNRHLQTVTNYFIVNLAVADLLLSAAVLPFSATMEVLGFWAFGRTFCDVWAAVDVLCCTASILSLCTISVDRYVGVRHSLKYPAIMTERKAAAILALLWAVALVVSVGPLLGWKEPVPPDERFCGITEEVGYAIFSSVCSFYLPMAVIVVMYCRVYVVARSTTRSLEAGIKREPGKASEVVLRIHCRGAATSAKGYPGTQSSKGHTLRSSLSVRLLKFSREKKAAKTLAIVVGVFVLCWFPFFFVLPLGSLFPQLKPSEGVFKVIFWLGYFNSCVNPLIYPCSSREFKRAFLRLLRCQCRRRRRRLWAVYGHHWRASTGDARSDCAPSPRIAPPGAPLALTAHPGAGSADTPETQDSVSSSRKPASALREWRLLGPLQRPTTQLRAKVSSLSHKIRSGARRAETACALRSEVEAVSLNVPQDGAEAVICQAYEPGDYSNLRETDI
T1 sequence (P43140 whole entry): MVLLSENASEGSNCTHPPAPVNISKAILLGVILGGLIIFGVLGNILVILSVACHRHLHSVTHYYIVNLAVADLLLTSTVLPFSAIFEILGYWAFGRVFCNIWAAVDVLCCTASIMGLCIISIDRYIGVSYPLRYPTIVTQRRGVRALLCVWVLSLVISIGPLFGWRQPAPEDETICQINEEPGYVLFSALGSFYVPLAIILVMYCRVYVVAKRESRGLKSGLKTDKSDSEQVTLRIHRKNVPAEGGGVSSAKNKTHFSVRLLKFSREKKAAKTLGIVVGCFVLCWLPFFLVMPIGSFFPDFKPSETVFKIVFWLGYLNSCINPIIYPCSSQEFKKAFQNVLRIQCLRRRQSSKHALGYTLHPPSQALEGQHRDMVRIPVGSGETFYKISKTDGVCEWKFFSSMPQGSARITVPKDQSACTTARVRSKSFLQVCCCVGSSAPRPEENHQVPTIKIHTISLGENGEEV

Rattus norvegicus [6] = test: Effect on heart rate in anaesthetized Wistar rat assessed as number of beats per minute at 1 mg/kg, iv after 1 min by electrocardiography; type: functional
Rattus norvegicus [7] = test: Effect on electrocardiogram in anaesthetized Wistar rat assessed as change in QRS interval at 1 mg/kg, iv after 1 min by electrocardiography; type: functional
Rattus norvegicus [8] = test: Antiarrhythmic activity against adrenaline-induced arrhythmia in po dosed anaesthetized Wistar rat assessed as inhibition of premature ventricular beats pretreated 60 mins prior to adrenaline challenge; type: functional; settings: Heart
[9] = Acute toxicity in iv dosed anaesthetized Wistar rat; type: organism-based; settings: in vivo
Rattus norvegicus [10] = test: Hypotensive activity in anaesthetized normotensive Wistar rat assessed as reduction in epinephrine-induced pressor response at 1 mg/kg, iv after 5 mins; type: functional, organism-based; parameters: dose 1 mg/kg
Rattus norvegicus [11] = test: Effect on electrocardiogram in anaesthetized Wistar rat assessed as change in Q-T interval at 1 mg/kg, iv after 5 mins by electrocardiography; type: functional
Rattus norvegicus [12] = test: Effect on electrocardiogram in anaesthetized Wistar rat assessed as change in P-Q-interval at 1 mg/kg, iv after 15 mins by electrocardiography; type: functional
Rattus norvegicus [13] = test: Hypotensive activity in anaesthetized normotensive Wistar rat assessed as reduction in methoxamine-induced pressor response at 1 mg/kg, iv after 5 mins; type: functional, organism-based; parameters: dose 1 mg/kg

COc1ccccc1OCCNC[C@@H](O)COc1cccc2[nH]ccc12
ED50 (Rattus norvegicus [1]): 0.43 mg/kg
Activity (Rattus norvegicus [2]): 53.7 ms
Activity (Rattus norvegicus [3]): 50.7 ms
Activity (Rattus norvegicus [4]): 63 ms
Ki [5]: 88.3 nM
Activity (Rattus norvegicus [6]): 307.8 min⁻¹
Activity (Rattus norvegicus [7]): 22.3 ms
ED50 (Rattus norvegicus [8]): 1.28 mg/kg
LD50 [9]: 20.4 mg/kg
Activity (Rattus norvegicus [10]): Active
Activity (Rattus norvegicus [11]): 66 ms
Activity (Rattus norvegicus [12]): 51.7 ms
Activity (Rattus norvegicus [13]): Active

COc1ccccc1OCCNCC(O)COc1cccc2[nH]ccc12 (racemic)
ED50 (Rattus norvegicus [1]): 0.34 mg/kg
Activity (Rattus norvegicus [2]): 47.2 ms
Activity (Rattus norvegicus [3]): 48.1 ms
Activity (Rattus norvegicus [4]): 69.2 ms
Ki [5]: 89.8 nM
Activity (Rattus norvegicus [6]): 298.7 min⁻¹
Activity (Rattus norvegicus [7]): 28.4 ms
ED50 (Rattus norvegicus [8]): 0.44 mg/kg
LD50 [9]: 20 mg/kg
Activity (Rattus norvegicus [10]): Active
Activity (Rattus norvegicus [11]): 69 ms
Activity (Rattus norvegicus [12]): 46.2 ms
Activity (Rattus norvegicus [13]): Active

COc1ccccc1OCCNC[C@H](O)COc1cccc2[nH]ccc12
ED50 (Rattus norvegicus [1]): 0.059 mg/kg
Activity (Rattus norvegicus [2]): 52.3 ms
Activity (Rattus norvegicus [3]): 49.7 ms
Activity (Rattus norvegicus [4]): 72.3 ms
Ki [5]: 56.7 nM
Activity (Rattus norvegicus [6]): 297.2 min⁻¹
Activity (Rattus norvegicus [7]): 24.3 ms
ED50 (Rattus norvegicus [8]): 0.61 mg/kg
LD50 [9]: 36.2 mg/kg
Activity (Rattus norvegicus [10]): Active
Activity (Rattus norvegicus [11]): 76.3 ms
Activity (Rattus norvegicus [12]): 48 ms
Activity (Rattus norvegicus [13]): Active

Reference: ChEMBL document CHEMBL1153880, “Synthesis and adrenolytic activity of 1-(1H-indol-4-yloxy)-3-{[2-(2-methoxyphenoxy)ethyl]amino}propan-2-ol and its enantiomers. Part 1” (Eur J Med Chem, 2009)
